The record followed here is US20250091994A1, “RAS/RAF BINDING INHIBITOR COMPOUND” (NATIONAL UNIVERSITY CORPORATION KOBE UNIVERSITY, priority 2021, published 2025).

The test system of experiment [1] is acute lymphoblastic leukemia cells MOLT4 (N-RasG12C). The experiment in a line: Cell growth inhibition, suspension cells MOLT4. The format is cell-based. As to conditions: Homo sapiens, MOLT-4, 72 hours; for inhibition at 10 µM: read-out: MOLT-4 (NRasG12C) % inhibition at 10 μM (**); for inhibition at 3.2 µM: read-out: MOLT-4 (NRasG12C) % inhibition at 3.2 μM (***). How it is done:
(§1) The cell growth inhibitory activity of the compound of the present invention on human culture cells having active-type mutation in Ras was evaluated by the below-mentioned method using suspension cancer cells {acute lymphoblastic leukemia cells CCRF-CEM (K-RasG12D), promyelocytic leukemia cells HL60 (N-RasQ61L), acute lymphoblastic leukemia cells MOLT4 (N-RasG12C), and small cell lung cancer cells SHP77 (K-RasG12V)} and adherent cancer cells {large bowel cancer cells SW480 (K-RasG12V) and large bowel cancer cell SW620 (K-RasG12V)}.
(§2) (Case of suspension cells) The cells suspended in a medium containing 0.5% (v/v) fetal bovine serum (FBS) and each compound solution (final DMSO concentration: 1%) were seeded on a 96-well plate (2 to 4×10^4 cells/well), and the resulting mixture was then cultured at 37° C. in the presence of 5% CO2 for 72 hours.
(§3) Thereafter, the number of viable cells was measured using Cell Counting Reagent (Nacalai Tesque) in accordance with the manufacturer's instructions. Inhibition by the test compound was determined according to the following equation: […]

The test system of experiment [2] is acute lymphoblastic leukemia cells CCRF-CEM (K-RasG12D). The experiment in a line: Cell growth inhibition, suspension cells CCRF-CEM. The format is cell-based. Particulars: Homo sapiens, 72 hours; for inhibition at 1 µM: read-out: CCRF-CEM (KRasG12D) % inhibition at 1 μM; for inhibition at 3.2 µM: read-out: CCRF-CEM (KRasG12D) % inhibition at 3.2 μM (***). As to the method: as §1, §2, §3

Experiment [3] has as its target GTPγS-bound human HRasG12V / human c-Raf-1 Ras binding domain (RBD) (Homo sapiens (Human), UniProt P01112, G12V). The experiment is described as follows: Ras-Raf binding inhibition ELISA. Particulars: for IC50: anti-HRas antibody C-20, read-out: ELISA IC50 (μM): 1st Ab_C-20. The method in brief:
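GST-c-Raf-1 RBD (aa 50-131) immobilized on glutathione plates, then GTPγS-loaded full-length HRasG12V added with compound (final 10% DMSO), 1 h at 30 °C, pH 7.4 Tris buffer. Bound Ras detected by anti-HRas antibody (C-20 or 259) and HRP secondary, TMB read at OD450; IC50 from inhibition.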

Experiment [4] relates to promyelocytic leukemia cells HL60 (N-RasQ61L). The experiment is described as follows: Cell growth inhibition, suspension cells HL60. The format is cell-based. Particulars: Homo sapiens, HL-60, 72 hours; for inhibition at 3.2 µM: read-out: HL-60 (NRasQ61L) % inhibition at 3.2 μM (****); for inhibition at 1 µM: read-out: HL-60 (NRasQ61L) % inhibition at 1 μM. The method in brief:
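Suspension cells, 2 to 4×10^4 per well, cultured with compound in medium with 0.5% FBS (1% DMSO final) for 72 h at 37° C, 5% CO2. Viable cells counted with Cell Counting Reagent; inhibition calculated relative to controls.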

In experiment [5] the test system is large bowel cancer cell SW620 (K-RasG12V). The experiment is described as follows: Cell growth inhibition, adherent cells SW620. The format is cell-based. Particulars: Homo sapiens, SW-620, 72 hours; for inhibition at 3.2 µM: read-out: SW620 (KRasG12V) % inhibition at 3.2 μM (***). The method in brief: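 Adherent cells, 1 to 2×10^4 per well, grown overnight in 10% FBS, then exposed to compound in low-serum medium […] for 72 h at 37° C. Viable cells counted with Cell Counting Reagent; inhibition calculated relative to controls.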

The subject of experiment [6] is phosphorylated ERK (pERK) in HL60 cells. The experiment is described as follows: Ras-Raf signaling inhibition at culture cell level, pERK. The format is cell-based. As to conditions: Homo sapiens, HL-60; HL60 (N-RasQ61L), 1 μM test compound, 3 hours. As to the method: (§4) The Ras-Raf signaling inhibitory activity of the compound of the present invention at a culture cell level was evaluated by the following method.
(§5) The HL60 cells described in Test Example 2 suspended in a medium containing 0.5% (v/v) FBS with each compound solution (final DMSO concentration: 1%), were seeded on a 12-well plate (2 to 4×10^5 cells/well), and the resulting mixture was then cultured at 37° C. in the presence of 5% CO2 for 3 hours.
(§6) After completion of the cell culture, proteins were extracted from the cells, using RIPA Buffer (Nacalai Tesque) containing a mixture of protease inhibitors and phosphatase inhibitors. An equivalent amount of protein was separated by standard SDS-PAGE and was then transferred onto a PVDF membrane. In order to detect the activation (phosphorylation) of MEK and ERK, downstream molecules of the Ras-Raf signaling pathway, the membrane was probed with 1000-fold diluted primary antibodies {phosphorylated MEK (pMEK: #9121), phosphorylated ERK (pERK: #9101), total MEK (tMEK: #9122), and total ERK (tERK: 9102); all from Cell signaling}, and then with a 1000-fold diluted horseradish peroxidase-labeled secondary antibody against rabbit immunoglobulin G. The immunoreactive signals were colored with EzWestLumi One (ATTO), and were then detected by Fusion FX (Vilber). Signal intensity was quantified by pixel counting. Inhibition by the test compound was determined according to the following equation: […]

Experiment [7] deals with phosphorylated MEK (pMEK) in HL60 cells. The experiment in a line: Ras-Raf signaling inhibition at culture cell level, pMEK. Particulars: Homo sapiens, HL-60; HL60 (N-RasQ61L), 1 μM test compound, 3 hours. The format is cell-based. As to the method:
as §4, §5, §6

In experiment [8] the test system is small cell lung cancer cells SHP77 (K-RasG12V). The experiment in a line: Cell growth inhibition, suspension cells SHP77. The class given is cell-based. Particulars: Homo sapiens, 3.2 μM (**), 72 hours, read-out: SHP77 (KRasG12V) % inhibition at 3.2 μM (**). As to the method: as §1, §2, §3

Each structure is given as a SMILES string.

Sequence of GTPγS-bound human HRasG12V / human c-Raf-1 Ras binding domain (RBD) (P01112 whole entry G12V, the tested form may be a part): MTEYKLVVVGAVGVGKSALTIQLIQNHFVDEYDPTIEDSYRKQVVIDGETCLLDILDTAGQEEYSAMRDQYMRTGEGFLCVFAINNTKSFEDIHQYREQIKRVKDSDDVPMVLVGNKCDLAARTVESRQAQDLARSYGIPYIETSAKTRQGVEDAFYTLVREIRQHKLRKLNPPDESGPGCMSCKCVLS

Broadly, the inhibition is the percentage by which the read-out fell short of the control. Broadly, the IC50 is the midpoint of a concentration-inhibition curve. Turning to `CC(=O)N1C(=Cc2cc(F)c(OCC(=O)N3CCOCC3)c(F)c2)C(=O)c2ccccc21` (racemic) [Example 19, 1-acetyl-2-(3,5-difluoro-4-(2-morpholino-2-oxoethoxy)-benzylidene)-indolin-3-one], the inhibition at 10 µM in experiment [1] was 100%. Moreover, the inhibition at 1 µM in experiment [2] is 83%. Besides, in experiment [3], the IC50 came out at 5.8 µM.

Regarding `CC(=O)N1/C(=C\c2cc(CNC3CCOCC3)c3ccccc3n2)C(=O)c2ccccc21` [Example 208, (Z)-1-acetyl-2-((4-(((tetrahydro-2H-pyran-4-yl)-amino)methyl)-quinolin-2-yl)-methylene)indolin-3-one], the inhibition at 3.2 µM in experiment [1] came to 96.2%; in experiment [2], 97%; in experiment [4] it was 95.1%; in experiment [5] it was 81.1%. The same compound had an inhibition at 1 µM in experiment [3] of 46.7%. Moreover, in experiment [3], the IC50 turned out to be 1.3 µM.

For `CCOc1cc(/C=C2/C(=O)c3ccccc3N2C(C)=O)ccc1OCC(N)=O` [Example 13, 2-(4-((1-acetyl-3-oxoindolin-2-ylidene)methyl)-2-ethoxyphenoxy)-acetamide], the inhibition at 10 µM in experiment [1] is 100%. Besides, the inhibition at 1 µM in experiment [2] worked out at 33%.

For `COc1cc(/C=C2/C(=O)c3ccccc3N2C(C)=O)ccc1OS(C)(=O)=O` [Example 21, 4-((1-acetyl-3-oxoindolin-2-ylidene)methyl)-2-methoxyphenyl methanesulfonate], the inhibition at 3.3 µM in experiment [1] (3.3 μM (*), read-out: MOLT-4 (NRasG12C) % inhibition at 3.3 μM (*)) was 100%. Further, the inhibition at 1 µM in experiment [2] turned out to be 97%; in experiment [4] it was 43%.

For the compound `CC(=O)N1/C(=C\c2cc(-c3cccc(-c4cnn(C)c4)c3)c3cc(CNC4CCOCC4)ccc3n2)C(=O)c2ccccc21` [Example 210, (Z)-1-acetyl-2-((4-(3-(1-methyl-1H-pyrazol-4-yl)-phenyl)-6-(((tetra-hydro-2H-pyran-4-yl)amino)meth-yl)quinolin-2-yl)-methylene)indolin-3-one], the inhibition at 3.2 µM stood at 96.2% in experiment [1], 97.5% in experiment [2], 97.3% in experiment [4] and 78% in experiment [5]. The same compound displayed an inhibition at 1 µM in experiment [3] of 66.9%. Further, in experiment [3], the IC50 came out at 0.6 µM.

Consider `COc1cc(/C=C2/C(=O)c3ccccc3N2C(C)=O)ccc1OCS(C)(=O)=O` [Example 24, 1-acetyl-2-(3-methoxy-4-((methylsulfon-yl)methoxy)-benzylidene)-indolin-3-one], for which the inhibition at 1 µM in experiment [1] (1 μM, read-out: MOLT-4 (NRasG12C) % inhibition at 1 μM) was 54%; in experiment [2], 88%.

As to `CCCCOc1cc(/C=C2/C(=O)c3ccccc3N2C(C)=O)nc2ccc(C(=O)N3CCOCC3)cc12` [Example 84, (Z)-1-acetyl-2-((4-butoxy-6-(morpholine-4-carbonyl)quinolin-2-yl)methylene)-indolin-3-one], the inhibition at 1 µM turned out to be 63% in experiment [6]; 96% in experiment [4]; 58% in experiment [7]; 90% in experiment [5] (1 μM, read-out: SW620 (KRasG12V) % inhibition at 1 μM).

Regarding `CC(=O)N1/C(=C\c2cc(CN3CCOCC3)c3ccccc3n2)C(=O)c2ccccc21` [Example 181, (Z)-1-acetyl-2-((4-(morpholinometh-yl)quinolin-2-yl)-methylene)indolin-3-one], the inhibition at 3.2 µM in experiment [1] was 96.3%; in experiment [2], 98.2%; in experiment [4] it was 96.7%; in experiment [5], 74.3%. In addition, the IC50 in experiment [3] worked out at 2.4 µM.

`COCCOc1ccc(/C=C2/C(=O)c3ccccc3N2C(C)=O)cc1OC` [Example 11, 1-acetyl-2-(3-methoxy-4-(2-methoxyethoxy)-benzylidene)-indolin-3-one]: the values for the inhibition at 10 µM in experiment [1] and in experiment [3] were 100% and 54%, respectively. In addition, in experiment [2], the inhibition at 1 µM worked out at 55%.

Turning to `CC(=O)N1C(=Cc2ccc(OCC(=O)N3CCOCC3)c(F)c2)C(=O)c2ccccc21` (racemic) [Example 16, 1-acetyl-2-(3-fluoro-4-(2-morpholino-2-oxoethoxy)-benzylidene)-indolin-3-one], in experiment [1], the inhibition at 10 µM is 100%. Also, the inhibition at 1 µM in experiment [2] was determined as 56%. Further, in experiment [3], the 50% inhibitory concentration (IC50) came to 7.6 µM.

Turning to `CC(=O)N1CCc2cc(-c3cc(/C=C4/C(=O)c5ccccc5N4C(C)=O)nc4ccc(CNC5CCOCC5)cc34)ccc2C1` [Example 209, (Z)-1-acetyl-2-((4-(2-acetyl-1,2,3,4-tetrahydro-isoquinolin-6-yl)-6-(((tetrahydro-2H-pyran-4-yl)-amino)methyl)-quinolin-2-yl)-methylene)indolin-3-one], the inhibition at 3.2 µM in experiment [1] came to 96.7%; in experiment [2] it was 97.8%; in experiment [4] it was 96.7%; in experiment [5], 94.4%. For the same compound, in experiment [3], testing at 1 µM gave an inhibition of 71.2%.

For the compound `CC(=O)N1/C(=C\c2ccc3c(-c4cccc5ccccc45)c(C(=O)N4CCOCC4)ccc3n2)C(=O)c2ccccc21` [Example 195, (Z)-1-acetyl-2-((6-(morpholine-4-carbonyl)-5-(naphthalen-1-yl)-quinolin-2-yl)-methylene)indolin-3-one], in experiment [3], the inhibition at 1 µM was 55.7% and the IC50 amounted to 0.9 µM. The inhibition at 3.2 µM in experiment [8] was determined as 96.4%. Moreover, the inhibition at 3.2 µM in experiment [5] is 95.4%.

For `CC(=O)N1/C(=C\c2cc(-c3ccc(-c4ccccc4)cc3)c3cc(C(=O)O)ccc3n2)C(=O)c2ccccc21` [Example 156, (Z)-4-([1,1′-biphenyl]-4-yl)-2-((1-acetyl-3-oxoindolin-2-ylidene)methyl)-quinoline-6-carboxylic acid], in experiment [3], testing at 1 µM gave an inhibition of 52% and the IC50 came to 0.9 µM. Moreover, the inhibition at 3.2 µM in experiment [8] is 35.1%. Besides, in experiment [5], the inhibition at 3.2 µM was found to be 99%.

`CC(=O)N1CCc2c(cccc2-c2cc(/C=C3/C(=O)c4ccccc4N3C(C)=O)nc3ccccc23)C1` [Example 193, (Z)-1-acetyl-2-((4-(2-acetyl-1,2,3,4-tetra-hydroisoquinolin-5-yl)quinolin-2-yl)methylene)-indolin-3-one] displayed an inhibition at 1 µM in experiment [3] of 60.4%. In addition, the inhibition at 3.2 µM in experiment [8] came to 98.1%; in experiment [5], 96.1%.
